{"source": "patent US20260151453A1", "about": "“COMBINATION THERAPY FOR THE TREATMENT OF CANCER” (PEPTOMYC, S.L., priority 2022, published 2026)", "key": {"MIA-PACA-2 cells": {"test_system": "MIA-PACA-2 cells", "test": "Viability of PDAC MIA-PACA-2 cells treated alone and in combination for 5 days; synergy score by SynergyFinder.org", "format": "cell-based", "conditions": "MIA-PACA-2, single agent, 5 days (FIG. 2)", "from_the_text": "Synergy scores can be interpreted as the average excess response due to drug interactions. Synergy scores close to 0 give limited confidence in synergy or antagonism. So, when the synergy scores are: less than −10, the interaction between two drugs is likely to be antagonistic. From −10 to 10, the interaction between two drugs is likely to be additive. Greater than 10, the interaction between two drugs is likely to be synergistic.\nPancreatic ductal adenocarcinoma (PDAC) MIA-PACA-2 cells were treated with increasing concentrations of Olaparib and the Omomyc peptide sequence SEQ ID NO: 4 alone and in combination, for 5 days.\nThen synergy score was calculated by SynergyFinder.org after having carried out 3 biological replicates as described above."}, "[1]": {"test_system": "SUM149 cell-derived xenograft (CDX)", "test": "SUM149 cell-derived xenograft (CDX) model, orthotopic in mammary fat-pad, tumour growth", "format": "in vivo", "conditions": "SUM149 CDX mice, 4 weeks; Omomyc 50 mg/kg intravenous once a week; Olaparib 50 mg/kg oral gavage 6 times a week; preliminary", "procedure": "SUM149 cell-derived xenograft (CDX) model mice were used for in vivo studies. Each mouse was inoculated orthotopically in the mammary fat-pad with 5 million cells. As the tumours reached 100 mm^3, mice were randomised in 4 treatment groups. Specifically, mice were treated with Omomyc once a week (50 mg/kg, intravenous), with Olaparib 6 times a week (50 mg/kg oral gavage), with the combination of the 2 drugs (combo) or with vehicle alone for 4 weeks. Relative volume was calculated as a percentage of tumour growth from the day of randomization and beginning of treatments. At end-point the average of the groups were respectively: vehicle 901.8%, Omomyc 663.6%, Olaparib 623.6%, and combination 335.8%."}}}
{"smiles": "O=C(c1cc(Cc2n[nH]c(=O)c3ccccc23)ccc1F)N1CCN(C(=O)C2CC2)CC1", "note": "[Olaparib, reference compound]", "values": [{"measurement": "sensitivity of the cell line to the single agent (viability)", "setting": "MIA-PACA-2 cells", "result": "particularly resistant"}, {"measurement": "Relative volume, percentage of tumour growth from the day of randomization (group average at end-point)", "setting": "[1]", "result": 623.6, "unit": "%"}]}
